Reference: paper PMC9481570, “A small molecule antagonist of SMN disrupts the interaction between SMN and RNAP II” (Nature Communications, 2022)

Tests used:
[1] = system: R-loops at ACTB gene locus; experiment: R-loop DNA immunoprecipitation with GFP-HB along ACTB locus; format: cell-based, human; details: for GFP-HB DNA immunoprecipitation qPCR, ACTB position 332 / GFP-HB DNA immunoprecipitation qPCR, ACTB position 1671 / GFP-HB DNA immunoprecipitation qPCR, ACTB position 3560 / GFP-HB DNA immunoprecipitation qPCR, ACTB position 3752 / GFP-HB DNA immunoprecipitation qPCR, ACTB position 4657 / GFP-HB DNA immunoprecipitation qPCR, ACTB position 5590 / GFP-HB DNA immunoprecipitation qPCR, ACTB position -72: HEK293 cells transfected with GFP-HB; for R-loop signals at the 3′-end of the ACTB gene: HEK293 cells, GFP-HB DNA immunoprecipitation
Source text: Fig. 4 Effects of SMN antagonists on the interaction between SMN and RNAP II, RNAP II pause, and R-loop accumulation. a SMN antagonists disrupt binding of SMN to RNAP II. Data shown are representative of three independent experiments. b Illustration of ACTB gene and the qPCR amplification positions. c SMN antagonists reduce SMN association at ACTB gene locus. Quantification of SMN qPCR data from ChIP experiments using SMN antibody at the indicated ACTB amplification positions. The SMN levels in DMSO controls were set as 100%. d SMN antagonists lead to RNAP II pause. Quantification of RNAP II qPCR data from ChIP experiments using POLR2A antibody at the indicated ACTB amplification positions. e SMN knockout (KO) leads to R-loop accumulation. Representative single-plane images of Z-stacks of the R-loop levels in scramble vs SMN KO cells of three independent experiments. Scale bar: 5 μm. f Global nuclear R-loop accumulation in SMN KO cells. g SMN antagonists cause global nuclear R-loop accumulation. h SMN antagonists lead to R-loop accumulation at ACTB gene locus. Quantified DNA immunoprecipitation using primers along ACTB locus by using GFP antibody, in cell extracts that were transfected with GFP-RNase H1 R-loop-binding domain (GFP-HB) fusion construct for R-loop detection. a–h HEK293 cells; c, d, h data were presented as the mean ± S.E.M. of three independent experiments (*P < 0.05, **P < 0.01, ***P < 0.001 for the two-tailed Student’s t-test); f, g scatter plots representing data from single-cell and R-loop immunofluorescence analysis (number of cells = 377, 332, 295, 262, 265 for scramble, SMN KO, DMSO, Cmpd 1, Cmpd 2 condition, respectively; Mean ± Quartiles; ****P < 0.0001 for the two-tailed Mann–Whitney test; a.u.: arbitrary units). Source data are provided as a Source Data file.
(§1) HEK293 cells (ATCC, CRL-1573) were grown in DMEM (SLRI media facility) plus 10% FBS (Sigma, F1051). For analysis of SMN chemical antagonists, HEK293 cells were treated with DMSO or a series of concentrations (0, 2, 6, 10, 20, 30, 40, and 80 μM) of compound 1, compound 2 or negative compound 15 for 72 h. CRISPR-mediated SMN1 gene knockout was performed according to our previous study. Briefly, 2 μg of CRISPR/Cas9 plasmid (pCMV-Cas9-GFP), which expresses scrambled guide RNA, or guide RNA that targets the SMN1 gene exon1 (gRNA target sequence: […]) or exon3 (gRNA target sequence: […]) was transfected into HEK293 cells. Cells were sorted by BD FACSAria flow cytometry at Donnelly Center, University of Toronto 24 h after transfection, and single GFP-positive cells were seeded into a 48-well plate. The expression levels of SMN in each clone were detected by immunofluorescence. The transfection of GFP-RNase H1 R-loop-binding domain (GFP-HB) for R-loop detection into HEK293 cells was performed with the FuGENE Transfection reagent (Roche, E269A).
ChIP was performed using the EZ-ChIP™ A - Chromatin Immunoprecipitation Kit (Millipore, 17-371) according to the manufacturer’s instruction. Antibodies were used with a range of 1–2 μg, and IgG (Millipore, polyclonal antibody, 12-370) was used as a background control. After immunoprecipitation, genomic DNA was de-crosslinked in ChIP elution buffer containing 5 M NaCl at 65 °C overnight and purified with the Qiaex II kit (Qiagen, 20021), and eluted in water for PCR amplification. Immunoprecipitated and input DNAs were used as templates for qPCR. The qPCR primer sequences for ACTB gene are the same as described earlier[9] and shown in the Supplementary Table 2. For analysis of SMN chemical antagonists, HEK293 cells were treated with DMSO, compound 1 or compound 2 (a final concentration of 20 μM) for 72 h, before processing for ChIP.

[2] = biological target: T1, SMN-POLR2A interaction (Homo sapiens, UniProt Q16637); experiment: Coimmunoprecipitation of POLR2A with SMN in HEK293 cells; format: cell-based; details: 72 h; for inhibition of the interaction between SMN and POLR2A: 20 µM; for coimmunoprecipitation of POLR2A with SMN: series of concentrations
T1 construct: endogenous in cells; host or cells: HEK293
T1 sequence (Q16637 2-294 limits assumed): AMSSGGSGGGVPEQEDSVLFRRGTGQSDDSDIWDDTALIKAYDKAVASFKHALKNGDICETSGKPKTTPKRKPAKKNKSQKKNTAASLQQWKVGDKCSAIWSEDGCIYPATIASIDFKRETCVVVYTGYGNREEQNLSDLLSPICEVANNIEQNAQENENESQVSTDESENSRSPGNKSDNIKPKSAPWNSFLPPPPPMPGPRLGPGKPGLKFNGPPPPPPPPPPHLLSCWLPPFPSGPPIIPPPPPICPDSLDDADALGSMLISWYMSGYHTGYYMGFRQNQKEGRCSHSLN
Protocol: as §1
The experiments were performed following procedure as previously described with minor modifications. […] The supernatant cell lysates were sonicated with five on and off cycles of 0.3 s/0.7 s per mL and incubated for 30 min at 4 °C with 12.5–25 units/mL benzonase nuclease (Sigma, E1014) to remove RNA and DNA, followed by centrifugation at 18,400 × g for 30 min at 4 °C. The supernatant cell lysates were incubated with 2 μg of antibody overnight at 4 °C, followed by the addition of 20 μL of Dynabeads Protein G beads (Invitrogen, 10004D) for an additional incubation for 4 h. After washing with low-salt buffer (10 mM Tris-HCl, pH 7.9, 100 mM NaCl, and 0.1% Nonidet P-40) 3 times, 10 min/time, associated proteins were eluted into protein-loading buffer and separated by Tris 4–20% SDS-polyacrylamide (Mini-PROTEAN TGX Precast Protein Gel, BioRad, 4561096), and transferred to nitrocellulose or PVDF membranes (Immu-Blot PVDF, BioRad, 1620112 or 1620177). Transferred samples were immunoblotted with primary antibodies (POLR2A, Abcam, ab5408, monoclonal antibody, clone No. 4H8; SMN, Santa Cruz Biotechnology, sc-15320, polyclonal antibody; ACTB, Sigma, A5441, monoclonal antibody, clone No. AC-15; GFP, Invitrogen, G10362, rabbit monoclonal antibody; TUBB, Santa Cruz Biotechnology, sc-9104, polyclonal antibody) at a dilution of 1:2000 to 1:5000, followed by horseradish peroxidase-conjugated goat anti-mouse or mouse anti-rabbit secondary antibody (Jackson Immuno Research, 115-035-174 or 211-032-171) at a dilution of 1:10,000. Western blot detection was performed with enhanced chemiluminescence (Pierce ECL Western Blotting Substrate, Thermo Fisher, 32209). […]

[3] = biological target: T2, SMN-RNAP II (GFP-POLR2D) interaction (Homo sapiens, UniProt Q16637); experiment: Coimmunoprecipitation of SMN with GFP-POLR2D in HEK293 cells; format: cell-based; details: series of concentrations, 72 h
T2 construct: endogenous in cells; host or cells: HEK293
T2 sequence (Q16637 2-294 limits assumed): as above
Protocol: as §1
The experiments were performed following procedure as previously described with minor modifications. […]

Row | Structure (SMILES) | GFP-HB DNA immunoprecipitation qPCR, ACTB position 332 [1] | GFP-HB DNA immunoprecipitation qPCR, ACTB position 1671 [1] | GFP-HB DNA immunoprecipitation qPCR, ACTB position 3560 [1] | GFP-HB DNA immunoprecipitation qPCR, ACTB position 3752 [1] | GFP-HB DNA immunoprecipitation qPCR, ACTB position 4657 [1] | GFP-HB DNA immunoprecipitation qPCR, ACTB position 5590 [1] | GFP-HB DNA immunoprecipitation qPCR, ACTB position -72 [1] | R-loop signals at the 3′-end of the ACTB gene [1] | inhibition of the interaction between SMN and POLR2A [2] | coimmunoprecipitation of POLR2A with SMN [2] | coimmunoprecipitation of SMN with GFP fusion protein of POLR2D [3]
1 | CCCn1c2c(c(=N)c3c1CCC3)CCC2 [Compound 2, 4-propyl-2,3,4,5,6,7-hexahydrodicyclopenta[b,e]pyridin-8(1H)-imine] | 0.008454 | 0.01239 | 0.02386 | 0.02558 | 0.01308 | 0.01171 | 0.004979 | significantly increased | significant inhibition | disrupted | inhibited
2 | Cn1c2c(c(=N)c3c1CCC3)CCC2 [Compound 1, 4-methyl-2,3,4,5,6,7-hexahydrodicyclopenta[b,e]pyridin-8(1H)-imine] | 0.009604 | 0.01285 | 0.03192 | 0.04162 | 0.02409 | 0.01303 | 0.00357 | significantly increased | significant inhibition | disrupted | inhibited
